According to patent publication US12178210B2, “Insect attractant and killing system” (priority 2020, dated 2024):
Like-named read-outs stand apart in the source and are kept apart here.

Conditions: 40° C., 15 g, UV8 membrane, 1.6 mm orifice
Source text: All prototype lure devices (i.e., the attractant receptacle and permeable membrane with enclosed volatile insect attractant) were constructed using polypropylene/calcium carbonate film (UV8) for the permeable membrane and Scotchpak™ (3M) polyester laminate film for the impermeable barrier material. Each lure device measured approximately 11.5 cm×5.5 cm with a 1.6 mm ( 1/16 in) diameter spherical punch in the impermeable layer exposing the membrane and an ˜8 mm ( 5/16 in) diameter heat seal around the circumference of the punch (referred to as a ring seal). […] Prior to being deployed the lures were weighed on an analytical balance (Sartorius, Universal; resolution of 0.01 g). Prototype lures were attached to a cord that ran the length of ventilated laboratory fume hood, with 5-8 cm (2-3 in) separating each lure in an open, ventilated room at the indicated temperature (18-20° C. or 39-41° C.). Every 2-3 days the lures were removed from the cord and weighed on the same scale. Lure weight was recorded and the weight loss (g/day) was calculated. In addition to prototype lures, two controls were included in the study consisting of a current Suterra lure product (WHF lure) and a competitor product (Comp. Prod. 1).

Compound: N.NC(=O)O [CM-NR, Ammonium carbamate]
- Attractant Release Rate (5-day average per time point) (day 5): 338.4 mg/day
- Attractant Release Rate (5-day average per time point) (day 10): 346.8 mg/day
- Attractant Release Rate (5-day average per time point) (day 15): 370.0 mg/day
- Attractant Release Rate (5-day average per time point) (day 20): 413.7 mg/day
- Attractant Release Rate (5-day average per time point) (day 25): 440.0 mg/day
- Attractant Release Rate (5-day average per time point) (day 30): 429.7 mg/day
- Attractant Release Rate (5-day average per time point) (day 35): 408.5 mg/day
- Attractant Release Rate (5-day average per time point) (day 40): 193.2 mg/day
- Attractant Release Rate (5-day average per time point) (day 45): 0.0 mg/day
- Attractant Release Rate (5-day average per time point) (day 49): 0.0 mg/day
- Attractant Release Rate (5-day average per time point) (day 55): 0.0 mg/day
